Test results: patent US11865126B2, “Method for treating anxiety disorders, headache disorders, and eating disorders with psilocybin” (priority 2019, dated 2024)

Columns and labels:
[1] = tested on: healthy subjects; experiment: Pictorial Empathy Test (PET); format: in vivo, human
Method: In some embodiments, the Pictorial Empathy Test (PET) is utilized to evaluate the effect of psilocybin on affective empathy.
The following list of outcome measures are non-exhaustive. • a. The short-term change from Baseline (Day −1 [Visit 2]) to Day 7 (Visit 5) in cognitive measures of attention, spatial and working memory and executive function was measured by a composite score of the CANTAB Panel (Spatial Working Memory [SWM], Rapid Visual Information Processing [RVP], Paired Associates Learning [PAL]). • b. The short-term change from Baseline (Day −1 [Visit 2]) to Day 7 (Visit 5) in Social Cognition Panel scales (Pictorial Empathy Test [PET], Reading the Mind in the Eyes Test [RMET], Toronto Empathy Questionnaire [TEQ], Social Value Orientation [SVO], Scale of Social Responsibility [SSR]). • c. The change from Baseline (Day −1 [Visit 2]) to Day 28 (Visit 6) in cognitive measures of attention, spatial and working memory and executive function as measured by a composite score of the CANTAB Panel (SWM, RVP, PAL). • d. The long-term change from Baseline (Day −1 [Visit 2]) to Day 84 (Visit 7) in Social Cognition Panel scales (PET, RMET, TEQ, SVO, SSR). • e. Dose-related differences between cognitive effects of psilocybin at Baseline (Day −1 [Visit 2]), Day 7 (Visit 5) and Day 28 (Visit 6), as measured by a composite score of the CANTAB Panel (SWM, RVP, PAL). • f. Dose-related differences between psychological effects of psilocybin at Baseline (Day −1 [Visit 2]), Day 7 (Visit 5) and Day 84 (Visit 7), as measured by Social Cognition Panel scales (PET, RMET, TEQ, SVO, SSR). • g. Differences in cognitive effects of psilocybin between psilocybin-naïve and experienced subjects at Baseline (Day −1 [Visit 2]), Day 7 (Visit 5) and Day 28 (Visit 6), as measured by a composite score of the CANTAB Panel (SWM, RVP, PAL). • h. Differences in Positive and Negative Affect Schedule (PANAS) after study drug administration on Day 0 (Visit 3). • i. Differences between psilocybin and placebo in the Emotion Recognition Test (ERT), Intra-Extra Dimensional Set Shift (IED), One Touch Stockings (OTS), Verbal Fluency and Digit Span Forward at Day 7 (Visit 5). • j. A composite score of the CANTAB Panel, including the following tests: • i. Spatial Working Memory (SWM) (performed at Visit 2, Visit 5, and Visit 6). • ii. Rapid Visual Information Processing (RVP) (performed at Visit 2, Visit 5, and Visit 6). • iii. Paired Associates Learning (PAL) (performed at Visit 2, Visit 5, and Visit 6). • k. Cognitive Flexibility Panel • i. Emotion Recognition Task (ERT) (performed at Visit 5). • ii. Intra-Extra Dimensional Set Shift (IED) (performed at Visit 5). • iii. One Touch Stockings (OTS) (performed at Visit 5). • iv. Verbal Fluency (performed at Visit 5). • v. Digit Span Forward (performed at Visit 5). • l. Five Dimension Altered States of Consciousness questionnaire (5D-ASC) (performed at Visit 3). • m. PANAS (performed at Visit 2 and Visit 3). • n. NEO-Five Factor Inventory (NEO-FFI) (performed at Visit 2, Visit 5, and Visit 7). • o. Symptom Checklist-90 item (SCL-90) (performed at Visit 2, Visit 5, and Visit 7). • p. Life Changes Inventory (LCI): The LCI measures changes in attitudes and values after near-death experiences often used to evaluate personal transformation following spiritually oriented experiences and practices. (performed at Visit 5 and Visit 7). • q. Social Cognition Panel scales • i. Pictorial Empathy Test (PET) (performed at Visit 2, Visit 5, and Visit 7). • ii. Reading the Mind in the Eyes Test (RMET) (performed at Visit 2, Visit 5, and Visit 7). • iii. Social Value Orientation (SVO) (performed at Visit 2, Visit 5, and Visit 7). • iv. Toronto Empathy Questionnaire (TEQ) (performed at Visit 2, Visit 5, and Visit 7). • v. Scale of Social Responsibility (SSR) (performed at Visit 2, Visit 5, and Visit 7). • r. Sheehan Suicidality Tracking Scale (SSTS) • s. Mini International Neuropsychiatric Interview (MINI). • t. […]

[2] = Binge eating model: body weight; conditions: 1, 3 and 10 mg/kg IP

CN(C)CCc1c[nH]c2cccc(OP(=O)(O)O)c12 [psilocybin]
PET change from baseline, LS mean difference Psilocybin 10 mg - Placebo ([1]; Day 7, MMRM): −0.1
PET change from baseline, LS mean difference Psilocybin 25 mg - Placebo ([1]; Day 7, MMRM): 0.2
PET change from baseline, LS mean difference Psilocybin 25 mg-10 mg ([1]; Day 7, MMRM): 0.3
PET change from baseline, LS mean difference Psilocybin 10 mg - Placebo ([1]; Day 84, MMRM): −0.1
PET change from baseline, LS mean difference Psilocybin 25 mg - Placebo ([1]; Day 84, MMRM): 0.1
PET change from baseline, LS mean difference Psilocybin 25 mg-10 mg ([1]; Day 84, MMRM): 0.3
Overall body weight [2]: not affected
